Experiments:
Bile acid receptor [1] = molecular target: T1, Bile acid receptor (Homo sapiens, UniProt Q96RI1); experiment: Agonist activity at FXR (unknown origin) transfected in human HepG2 cells incubated for 24 hrs by luciferase assay; format: cell-based
T1 sequence (Q96RI1 whole entry): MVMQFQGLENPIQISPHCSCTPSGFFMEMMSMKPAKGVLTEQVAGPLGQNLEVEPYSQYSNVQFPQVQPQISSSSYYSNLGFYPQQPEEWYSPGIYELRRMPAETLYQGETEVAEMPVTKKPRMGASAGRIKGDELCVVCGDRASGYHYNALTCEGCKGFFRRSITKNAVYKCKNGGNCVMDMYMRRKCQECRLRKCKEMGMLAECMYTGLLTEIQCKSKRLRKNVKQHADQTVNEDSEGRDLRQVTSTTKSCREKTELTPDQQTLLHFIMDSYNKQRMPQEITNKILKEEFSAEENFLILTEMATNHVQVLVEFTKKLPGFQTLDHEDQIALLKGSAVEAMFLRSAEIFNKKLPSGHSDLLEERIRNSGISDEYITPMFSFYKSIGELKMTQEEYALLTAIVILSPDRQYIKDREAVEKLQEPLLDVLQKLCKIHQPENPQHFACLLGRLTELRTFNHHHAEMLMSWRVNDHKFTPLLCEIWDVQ

[2] = molecular target: T2, Fatty acid-binding protein, liver (Homo sapiens, UniProt P07148); experiment: Inhibition of FABP1 (unknown origin)
T2 sequence (P07148 whole entry): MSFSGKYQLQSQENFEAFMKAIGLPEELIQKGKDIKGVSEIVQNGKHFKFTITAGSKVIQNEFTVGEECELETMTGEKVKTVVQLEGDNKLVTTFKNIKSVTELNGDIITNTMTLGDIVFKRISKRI

Progesterone receptor = molecular target: T3, Progesterone receptor (Homo sapiens, UniProt P06401); experiment: Agonist activity at progesterone receptor (unknown origin) transfected in green monkey CV-1 cells co-transfected with NHR responsive luciferase reporter incubated for 18 hrs by luciferase assay; format: cell-based
T3 sequence (P06401 whole entry): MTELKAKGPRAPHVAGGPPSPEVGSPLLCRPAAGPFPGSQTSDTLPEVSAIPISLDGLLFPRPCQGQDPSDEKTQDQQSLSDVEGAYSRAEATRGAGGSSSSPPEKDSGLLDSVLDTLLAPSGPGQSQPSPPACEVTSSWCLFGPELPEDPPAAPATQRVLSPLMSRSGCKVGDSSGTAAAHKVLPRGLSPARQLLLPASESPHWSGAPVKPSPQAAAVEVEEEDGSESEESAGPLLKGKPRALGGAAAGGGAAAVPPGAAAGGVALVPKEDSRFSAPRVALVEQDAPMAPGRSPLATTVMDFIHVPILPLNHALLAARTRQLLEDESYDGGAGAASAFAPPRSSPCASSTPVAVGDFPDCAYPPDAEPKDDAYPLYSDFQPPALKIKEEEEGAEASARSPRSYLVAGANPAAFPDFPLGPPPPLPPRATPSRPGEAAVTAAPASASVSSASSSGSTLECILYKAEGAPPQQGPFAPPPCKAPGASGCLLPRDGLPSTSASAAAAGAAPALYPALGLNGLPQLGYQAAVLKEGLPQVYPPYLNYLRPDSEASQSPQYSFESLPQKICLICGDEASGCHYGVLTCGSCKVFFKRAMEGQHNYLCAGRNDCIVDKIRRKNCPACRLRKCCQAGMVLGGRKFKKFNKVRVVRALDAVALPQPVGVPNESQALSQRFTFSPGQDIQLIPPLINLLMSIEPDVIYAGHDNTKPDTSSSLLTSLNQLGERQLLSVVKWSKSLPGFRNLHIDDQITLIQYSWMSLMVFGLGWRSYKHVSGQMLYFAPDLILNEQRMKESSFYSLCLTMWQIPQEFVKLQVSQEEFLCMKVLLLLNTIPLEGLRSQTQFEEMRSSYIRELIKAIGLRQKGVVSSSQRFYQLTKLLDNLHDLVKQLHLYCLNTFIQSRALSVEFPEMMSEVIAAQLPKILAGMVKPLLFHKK

[3] = molecular target: T4, Retinoic acid receptor alpha (Homo sapiens, UniProt P10276); experiment: Agonist activity at RARalpha (unknown origin) transfected in green monkey CV-1 cells co-transfected with NHR responsive luciferase reporter incubated for 18 hrs by luciferase assay; format: cell-based
T4 sequence (P10276 whole entry): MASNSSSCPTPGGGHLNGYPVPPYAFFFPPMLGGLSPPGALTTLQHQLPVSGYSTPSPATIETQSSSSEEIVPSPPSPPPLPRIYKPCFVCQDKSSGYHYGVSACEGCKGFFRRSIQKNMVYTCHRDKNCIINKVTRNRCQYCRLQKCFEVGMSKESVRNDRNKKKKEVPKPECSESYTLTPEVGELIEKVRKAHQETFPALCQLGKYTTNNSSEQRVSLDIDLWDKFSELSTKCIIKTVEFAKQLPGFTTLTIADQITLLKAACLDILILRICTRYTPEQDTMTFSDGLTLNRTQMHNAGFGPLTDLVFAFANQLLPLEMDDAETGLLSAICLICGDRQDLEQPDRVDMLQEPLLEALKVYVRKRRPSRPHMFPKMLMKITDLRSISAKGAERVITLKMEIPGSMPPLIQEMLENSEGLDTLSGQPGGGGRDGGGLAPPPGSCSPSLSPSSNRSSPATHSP

Bile acid receptor [4] = molecular target: T1, Bile acid receptor; experiment: Agonist activity at FXR-LBD (unknown origin) incubated for 3 hrs in presence of fluorescein-coactivator peptide by TR-FRET analysis

SMILES: O=C(O)c1ccc(-c2ccc(OCc3c(-c4c(Cl)cccc4Cl)noc3C3CC3)cc2)cc1
- EC50 (Bile acid receptor [1]): 132 nM
- IC50 [2]: 8.5 µM
- EC50 (Progesterone receptor): > 10 µM
- EC50 [3]: > 10 µM
- EC50 (Bile acid receptor [4]): 52 nM
